Assay results as given in patent publication US8193172B2, “Methods for the treatment of major depressive disorder using glucocorticoid receptor antagonists” (Pop Test Cortisol LLC, priority 2001, dated 2012).
Where two headings read alike, the source gives them in different places.

What was measured:
[1] = tested on: psychosis associated with psychotic major depression; settings: mifepristone 8-12 mg/kg/day over 4 days; cited from earlier work
[2] = tested on: psychosis associated with psychotic major depression; settings: cited from earlier work
[3] = tested on: Major Depressive Disorder patients; assay: Double blind, 4 week, paroxetine controlled study of Org 34517 in depressed patients (HAMD-21, afternoon cortisol test); format: in vivo; settings: daily dose 150-300 mg, oral, FIG. 1
Description: A double blind, 4 week, paroxetine controlled study of Org 34517 in depressed patients was carried out. Paroxetine is a selective serotonin re-uptake inhibitor which is recognized as an effective antidepressant for major depression.
Patients were randomly allocated to one of three treatment groups. Group I patients (50 patients) received 2 capsules with 75 mg of Org 34517 and one placebo (total daily dose 150 mg) for the first 2 weeks and 2 capsules with 75 mg Org 34517 and 1 capsule with 150 mg (total daily dose 300 mg) the next 2 weeks; Group II patients (46 patients) received 3 capsules with 150 mg Org 34517 (total daily dose 450 mg) in the first 2 weeks and 4 capsules of Org 34517 (total daily dose 600 mg) in the next 2 weeks; Group III patients (44 patients) received 2 capsules with 10 mg paroxetine and one placebo capsule (total daily dose 20 mg) for the first 2 weeks, followed by 2 capsules of 10 mg and one capsule of 20 mg paroxetine (total daily dose 40 mg) in the next 2 weeks. Medication was administered orally in the morning. Efficacy assessment was done on days 4, 7, 10, 14, 21, 28 and 35 by using the 21-item HAMD scale.
The cortisol levels were determined using the afternoon cortisol test (ACT) as described by Halbreich et al. [J. Clin. Endocrinol. Metab. (1982) 54 (6), 1262].

Which “effect in the treatment of psychosis associated with psychotic major depression” value [1] does the source give for `CC#C[C@]1(O)CC[C@H]2[C@@H]3CCC4=CC(=O)CCC4=C3[C@@H](c3ccc(N(C)C)cc3)C[C@@]21C` [mifepristone, 17β-hydroxy-11β-(4-dimethylaminophenyl)-17α-(1-propynyl)estra-4,9-dien-3-one] here?
The value was “effective”.

What about the “change in Brief Psychiatric Rating Scale” value ([2]; daily dose 50 mg) of the same compound?
Its value is 33%.

And the “change in Brief Psychiatric Rating Scale” value ([2]; daily dose 600 mg)?
The value was 40%.

And the “change in Brief Psychiatric Rating Scale” value ([2]; daily dose 1200 mg)?
The value was 52%.

For `CC#C[C@]1(O)CC[C@H]2[C@@H]3CCC4=CC(=O)CCC4=C3[C@@H](c3ccc4c(c3)OCO4)C[C@@]21C` [Org 34517, (11β,17β)-11-(1,3-benzodioxol-5-yl)-17-hydroxy-17-(1-propynyl)estra-4,9-dien-3-one], which “p of correlation between HAMD-21 change and cortisol (ACT) change” value ([3]; HAMD-21 change scored at day 14, cortisol change at 28 days) is on record?
The value was 0.02.

What about the “clinical improvement (HAMD decrease) in relation to cortisol change” value [3] of the same compound?
The value was “most prominent clinical improvement (HAMD decrease) is seen in patients were cortisol is not increased”.
